Laboratory results from ChEMBL document CHEMBL1201862, “PubChem BioAssay data set” (2004).
Activity calls are given as the source filed them.

How the values were obtained:
[1] = biological target: T1, Mitochondrial peptide methionine sulfoxide reductase (Bos taurus, UniProt P54149); assay: Absorbance-based biochemical high throughput dose response assay for activators of Methionine sulfoxide reductase A (MsrA).; format: functional
T1 sequence (P54149 whole entry): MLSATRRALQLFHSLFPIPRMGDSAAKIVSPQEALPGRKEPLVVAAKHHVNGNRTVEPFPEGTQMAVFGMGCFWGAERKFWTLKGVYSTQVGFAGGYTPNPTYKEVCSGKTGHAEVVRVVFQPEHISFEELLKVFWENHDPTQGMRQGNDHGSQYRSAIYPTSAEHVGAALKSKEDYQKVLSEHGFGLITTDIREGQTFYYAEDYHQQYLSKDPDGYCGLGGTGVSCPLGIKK

[2] = biological target: T2, Sentrin-specific protease 7 (Homo sapiens, UniProt Q9BQF6); format: functional;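 further: Luminescence-based dose-response confirmation of ultra-high-throughput screening hits, measuring inhibition of SENP7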
T2 sequence (Q9BQF6 whole entry): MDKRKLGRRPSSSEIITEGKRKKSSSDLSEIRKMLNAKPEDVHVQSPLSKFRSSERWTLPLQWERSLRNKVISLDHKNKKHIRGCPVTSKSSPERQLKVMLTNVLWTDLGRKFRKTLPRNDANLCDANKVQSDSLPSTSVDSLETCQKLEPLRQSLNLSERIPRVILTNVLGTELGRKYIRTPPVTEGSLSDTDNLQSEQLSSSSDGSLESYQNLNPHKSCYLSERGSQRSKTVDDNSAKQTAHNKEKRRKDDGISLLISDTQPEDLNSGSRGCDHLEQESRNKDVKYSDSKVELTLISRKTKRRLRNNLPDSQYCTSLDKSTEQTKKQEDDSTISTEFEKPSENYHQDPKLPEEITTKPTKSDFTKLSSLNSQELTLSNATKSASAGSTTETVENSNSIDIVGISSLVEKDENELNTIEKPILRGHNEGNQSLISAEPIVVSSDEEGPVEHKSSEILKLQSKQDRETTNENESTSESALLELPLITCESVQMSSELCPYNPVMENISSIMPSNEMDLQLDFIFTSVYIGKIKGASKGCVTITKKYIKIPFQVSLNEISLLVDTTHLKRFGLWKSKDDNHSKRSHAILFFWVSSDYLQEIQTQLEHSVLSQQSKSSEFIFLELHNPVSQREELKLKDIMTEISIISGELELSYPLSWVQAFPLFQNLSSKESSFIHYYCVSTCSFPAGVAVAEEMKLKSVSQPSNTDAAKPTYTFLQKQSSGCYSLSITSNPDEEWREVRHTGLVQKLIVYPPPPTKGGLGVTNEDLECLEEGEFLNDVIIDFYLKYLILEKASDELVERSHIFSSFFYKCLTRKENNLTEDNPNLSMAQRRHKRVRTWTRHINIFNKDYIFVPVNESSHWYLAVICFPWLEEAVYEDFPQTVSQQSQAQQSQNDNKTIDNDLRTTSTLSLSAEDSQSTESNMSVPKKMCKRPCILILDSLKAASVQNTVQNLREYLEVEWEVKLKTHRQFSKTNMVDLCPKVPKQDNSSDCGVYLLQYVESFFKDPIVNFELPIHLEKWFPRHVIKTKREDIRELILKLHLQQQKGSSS

[3] = biological target: T3, Sentrin-specific protease 6 (Homo sapiens, UniProt Q9GZR1); format: functional;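 further: Luminescence-based dose-response confirmatory assay of SENP6 inhibition, following up an ultra-high-throughput screen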
T3 sequence (Q9GZR1 whole entry): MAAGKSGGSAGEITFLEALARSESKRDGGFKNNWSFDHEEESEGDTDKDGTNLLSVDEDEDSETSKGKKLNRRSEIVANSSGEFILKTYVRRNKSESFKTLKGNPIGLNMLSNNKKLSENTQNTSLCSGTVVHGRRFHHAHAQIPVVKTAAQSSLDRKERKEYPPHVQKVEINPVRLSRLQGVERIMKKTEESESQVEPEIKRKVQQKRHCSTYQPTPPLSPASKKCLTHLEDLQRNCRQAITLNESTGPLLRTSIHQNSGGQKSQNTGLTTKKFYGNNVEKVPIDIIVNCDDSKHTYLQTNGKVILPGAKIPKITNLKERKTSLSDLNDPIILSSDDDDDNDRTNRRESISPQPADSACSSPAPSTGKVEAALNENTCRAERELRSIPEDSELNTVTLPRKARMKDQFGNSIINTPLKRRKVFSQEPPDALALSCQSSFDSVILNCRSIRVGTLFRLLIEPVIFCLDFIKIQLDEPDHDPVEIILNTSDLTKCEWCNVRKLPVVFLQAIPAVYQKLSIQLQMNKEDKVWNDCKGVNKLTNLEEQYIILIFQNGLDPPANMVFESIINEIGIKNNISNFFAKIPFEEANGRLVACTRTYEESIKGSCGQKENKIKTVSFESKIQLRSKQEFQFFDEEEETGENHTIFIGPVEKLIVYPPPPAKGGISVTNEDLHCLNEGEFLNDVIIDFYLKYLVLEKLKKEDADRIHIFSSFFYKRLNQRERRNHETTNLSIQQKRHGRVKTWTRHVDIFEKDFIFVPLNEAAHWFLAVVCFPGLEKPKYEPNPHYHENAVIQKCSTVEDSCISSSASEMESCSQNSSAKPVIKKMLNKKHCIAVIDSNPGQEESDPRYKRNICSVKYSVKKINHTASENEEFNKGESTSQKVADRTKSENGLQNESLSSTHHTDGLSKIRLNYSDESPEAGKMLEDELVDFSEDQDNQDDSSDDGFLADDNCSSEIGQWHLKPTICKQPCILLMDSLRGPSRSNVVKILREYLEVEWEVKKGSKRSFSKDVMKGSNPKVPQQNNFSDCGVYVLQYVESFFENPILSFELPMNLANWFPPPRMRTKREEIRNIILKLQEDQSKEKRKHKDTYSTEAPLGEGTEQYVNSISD

Caspase-3 = biological target: T4, Caspase-3 (Homo sapiens, UniProt P42574); format: functional;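 further: Dose-response selectivity test against caspase-3 for candidate inhibitors of sentrin-specific proteases (SENPs)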
T4 sequence (P42574 whole entry): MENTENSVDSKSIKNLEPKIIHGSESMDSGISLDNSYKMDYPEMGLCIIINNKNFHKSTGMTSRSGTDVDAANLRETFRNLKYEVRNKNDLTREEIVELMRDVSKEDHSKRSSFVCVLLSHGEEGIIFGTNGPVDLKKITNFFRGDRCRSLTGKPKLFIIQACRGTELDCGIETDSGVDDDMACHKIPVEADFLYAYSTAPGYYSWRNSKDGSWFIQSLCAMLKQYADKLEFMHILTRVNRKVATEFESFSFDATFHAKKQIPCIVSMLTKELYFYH

[4] = biological target: T5, Sentrin-specific protease 8 (Homo sapiens, UniProt Q96LD8); format: functional;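 further: luminescence read-out of SENP8 inhibition, dose-response confirmation following an ultra-high-throughput screen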
T5 sequence (Q96LD8 whole entry): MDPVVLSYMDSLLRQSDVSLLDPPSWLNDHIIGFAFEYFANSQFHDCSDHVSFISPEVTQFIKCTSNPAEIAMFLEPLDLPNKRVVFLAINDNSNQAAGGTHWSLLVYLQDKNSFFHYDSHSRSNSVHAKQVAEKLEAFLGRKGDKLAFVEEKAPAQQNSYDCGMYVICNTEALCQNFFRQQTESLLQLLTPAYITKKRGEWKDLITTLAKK

[5] = test system: Streptococcus sp. 'group A'; assay: growth inhibition of control SK(-) GAS strain, dose response, counter-screen for streptokinase expression inhibitor project, luminescence, kanamycin, BacTiterGlo, confirmation (AID 1900); format: functional, organism-based
[6] = biological target: 26S proteasome non-ATPase regulatory subunit 14 (Homo sapiens, UniProt O00487); assay: inhibition of proteasome subunit RPN11 – biochemical, fluorescence polarization, uHTS hits, confirmation (AID 602368); format: functional
Phospholipase A2 = Phospholipase A2 (Homo sapiens, UniProt P04054); format: functional;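 further: confirmatory dose-response counterscreen on phospholipase A2, testing hits that came from an ultra-high-throughput screen for ATG4B inhibitors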
Streptococcus = assay: Group A Streptococcus viability loss, dose response, counter-screen for streptokinase expression inhibitor project, luminescence, BacTiterGlo (AID 1915); format: functional, organism-based;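 further: potency for reduction of bacterial viability or growth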
Prothrombin = Prothrombin (Bos taurus, UniProt P00735); assay: thrombin inhibition, dose response, biochemical, fluorescence polarization, uHTS hits (AID 602369); format: functional
[7] = biological target: 72 kDa type IV collagenase (Homo sapiens, UniProt P08253); assay: Dose Response validation of uHTS RPN11 inhibitor hits using a MMP-2 Fluorescence assay.; format: functional
Cysteine protease ATG4B = biological target: T6, Cysteine protease ATG4B (Homo sapiens, UniProt Q9Y4P1); format: functional;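 further: Fluorescence-based dose-response confirmation assay measuring inhibition of ATG4B activity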
T6 sequence (Q9Y4P1 whole entry): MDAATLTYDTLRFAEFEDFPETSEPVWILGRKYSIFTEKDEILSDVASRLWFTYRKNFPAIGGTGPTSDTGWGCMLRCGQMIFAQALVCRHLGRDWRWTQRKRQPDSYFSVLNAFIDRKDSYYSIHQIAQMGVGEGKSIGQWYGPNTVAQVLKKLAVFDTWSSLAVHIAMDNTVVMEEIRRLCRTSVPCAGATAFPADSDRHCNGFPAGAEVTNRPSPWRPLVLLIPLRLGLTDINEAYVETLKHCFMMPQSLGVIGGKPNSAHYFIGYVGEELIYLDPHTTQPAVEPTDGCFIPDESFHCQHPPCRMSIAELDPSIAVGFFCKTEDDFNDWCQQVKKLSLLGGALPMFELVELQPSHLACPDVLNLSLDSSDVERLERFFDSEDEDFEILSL

[8] = biological target: T7, Low molecular weight phosphotyrosine protein phosphatase (Homo sapiens, UniProt P24666); format: functional; conditions: read-out: IC50_Mean;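 further: Dose-response confirmation assay measuring inhibition of LMPTP enzyme activity by fluorescence intensity read-out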
T7 sequence (P24666 whole entry): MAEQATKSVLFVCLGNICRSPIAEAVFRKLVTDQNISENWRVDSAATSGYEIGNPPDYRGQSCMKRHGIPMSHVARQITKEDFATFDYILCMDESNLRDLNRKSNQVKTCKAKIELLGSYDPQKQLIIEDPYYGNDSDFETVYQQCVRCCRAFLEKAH

[9] = biological target: T8, Ubiquitin-conjugating enzyme E2 N (Homo sapiens, UniProt P61088); format: functional;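 further: Dose-response confirmation in a TR-FRET assay detecting UBC13-driven polyubiquitin chain formation, inhibition measured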
T8 sequence (P61088 whole entry): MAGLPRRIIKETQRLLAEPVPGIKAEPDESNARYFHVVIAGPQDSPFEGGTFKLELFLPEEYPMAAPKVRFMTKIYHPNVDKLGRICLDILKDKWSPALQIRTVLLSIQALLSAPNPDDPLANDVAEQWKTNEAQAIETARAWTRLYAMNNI

Albumin = Albumin (Bos taurus, UniProt P02769); assay: Counterscreen for inhibitors of T-cell receptor (TCR)-CD3 interaction: Fluorescence-based biochemical high throughput dose response assay to identify inhibitors of T-cell receptor (TCR)-CD3 interaction using a TAMRA-labeled BSA probe.; format: functional
[10] = biological target: T9, DNA repair protein RAD52 homolog (Homo sapiens, UniProt P43351); format: functional, biochemical
T9 sequence (P43351 whole entry): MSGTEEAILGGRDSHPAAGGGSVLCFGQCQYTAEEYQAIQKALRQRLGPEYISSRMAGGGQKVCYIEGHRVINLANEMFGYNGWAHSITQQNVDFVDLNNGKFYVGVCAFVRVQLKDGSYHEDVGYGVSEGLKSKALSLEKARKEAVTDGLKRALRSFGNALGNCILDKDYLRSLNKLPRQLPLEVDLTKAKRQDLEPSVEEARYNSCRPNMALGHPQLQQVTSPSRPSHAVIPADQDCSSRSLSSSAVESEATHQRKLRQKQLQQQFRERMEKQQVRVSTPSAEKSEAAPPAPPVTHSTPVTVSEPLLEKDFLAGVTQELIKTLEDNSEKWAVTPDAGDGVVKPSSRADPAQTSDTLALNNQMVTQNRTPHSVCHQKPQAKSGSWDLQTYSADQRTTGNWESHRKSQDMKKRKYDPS

[11] = biological target: Voltage-dependent T-type calcium channel subunit alpha-1H (Homo sapiens, UniProt O95180); format: functional;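 further: channel activity triggered by adding a high calcium stimulation buffer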
Cytochrome P450 2D6 = Cytochrome P450 2D6 (Homo sapiens, UniProt P10635);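 further: CYP2D6 member of a cytochrome P450 panel assay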
[12] = biological target: Tyrosine-protein phosphatase non-receptor type 5 (Homo sapiens, UniProt P54829); assay: STEP phosphatase inhibitors, confirmation, biochemical, fluorescence intensity, uHTS hits (AID 602372); format: functional; conditions: read-out: IC50_Mean
[13] = biological target: Dual specificity protein phosphatase 3 (Homo sapiens, UniProt P51452); assay: VHR phosphatase inhibition, dose response, selectivity assay for STEP inhibitor project, biochemical (AID 602374); format: functional; conditions: read-out: IC50_Mean
[14] = biological target: Tyrosine-protein phosphatase non-receptor type 11 (Homo sapiens, UniProt Q06124); assay: SHP2 phosphatase inhibition, dose response, selectivity assay for STEP inhibitor project, biochemical (AID 602367); format: functional; conditions: read-out: IC50_Mean
[15] = biological target: DNA repair and recombination protein RAD54-like (Homo sapiens, UniProt Q92698); assay: inhibitors of human RAD54 branch migration, confirmation, biochemical, fluorescence, cherry-picked samples, dose series (AID 651657); format: functional
[16] = biological target: DNA (cytosine-5)-methyltransferase 1 (Homo sapiens, UniProt P26358); assay: DNMT1 methyltransferase inhibitors, confirmation, biochemical, fluorescent molecular beacon (AID 602386); format: functional

Chain of Phospholipase A2 (P04054 whole entry): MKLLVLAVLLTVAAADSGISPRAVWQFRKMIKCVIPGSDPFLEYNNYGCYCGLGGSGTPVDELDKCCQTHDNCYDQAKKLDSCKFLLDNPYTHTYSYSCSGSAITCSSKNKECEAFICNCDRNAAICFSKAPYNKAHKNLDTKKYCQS
Chain of Tyrosine-protein phosphatase non-receptor type 5 (P54829 whole entry): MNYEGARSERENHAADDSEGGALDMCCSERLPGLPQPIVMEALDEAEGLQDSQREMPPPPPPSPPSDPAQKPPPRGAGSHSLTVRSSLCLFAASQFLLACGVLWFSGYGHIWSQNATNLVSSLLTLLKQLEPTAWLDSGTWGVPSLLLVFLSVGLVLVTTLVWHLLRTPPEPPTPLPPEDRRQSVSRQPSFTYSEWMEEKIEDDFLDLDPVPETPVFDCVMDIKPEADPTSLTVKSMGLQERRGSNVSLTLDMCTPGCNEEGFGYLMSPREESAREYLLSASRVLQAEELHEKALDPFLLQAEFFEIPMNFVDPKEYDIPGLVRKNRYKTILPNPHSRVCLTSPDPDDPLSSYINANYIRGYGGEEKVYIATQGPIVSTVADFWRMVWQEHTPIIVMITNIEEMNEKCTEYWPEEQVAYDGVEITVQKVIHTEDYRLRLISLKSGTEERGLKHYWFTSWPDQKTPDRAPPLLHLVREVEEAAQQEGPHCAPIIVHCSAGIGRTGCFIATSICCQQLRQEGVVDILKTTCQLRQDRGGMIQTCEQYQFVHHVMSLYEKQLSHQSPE
Chain of Cytochrome P450 2D6 (P10635 whole entry): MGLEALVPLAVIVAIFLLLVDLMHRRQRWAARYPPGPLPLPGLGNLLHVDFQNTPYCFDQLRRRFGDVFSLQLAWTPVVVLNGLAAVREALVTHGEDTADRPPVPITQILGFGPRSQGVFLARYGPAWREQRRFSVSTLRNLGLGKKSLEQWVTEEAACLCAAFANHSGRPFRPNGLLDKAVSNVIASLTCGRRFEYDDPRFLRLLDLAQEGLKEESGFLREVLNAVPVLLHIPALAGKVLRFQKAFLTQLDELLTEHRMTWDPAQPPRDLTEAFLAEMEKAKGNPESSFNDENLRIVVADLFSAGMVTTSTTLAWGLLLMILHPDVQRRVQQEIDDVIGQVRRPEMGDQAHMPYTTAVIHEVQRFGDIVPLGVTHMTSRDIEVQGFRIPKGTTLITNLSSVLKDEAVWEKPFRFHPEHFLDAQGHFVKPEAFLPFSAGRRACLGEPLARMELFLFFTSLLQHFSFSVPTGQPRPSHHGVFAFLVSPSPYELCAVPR
Chain of 72 kDa type IV collagenase (P08253 whole entry): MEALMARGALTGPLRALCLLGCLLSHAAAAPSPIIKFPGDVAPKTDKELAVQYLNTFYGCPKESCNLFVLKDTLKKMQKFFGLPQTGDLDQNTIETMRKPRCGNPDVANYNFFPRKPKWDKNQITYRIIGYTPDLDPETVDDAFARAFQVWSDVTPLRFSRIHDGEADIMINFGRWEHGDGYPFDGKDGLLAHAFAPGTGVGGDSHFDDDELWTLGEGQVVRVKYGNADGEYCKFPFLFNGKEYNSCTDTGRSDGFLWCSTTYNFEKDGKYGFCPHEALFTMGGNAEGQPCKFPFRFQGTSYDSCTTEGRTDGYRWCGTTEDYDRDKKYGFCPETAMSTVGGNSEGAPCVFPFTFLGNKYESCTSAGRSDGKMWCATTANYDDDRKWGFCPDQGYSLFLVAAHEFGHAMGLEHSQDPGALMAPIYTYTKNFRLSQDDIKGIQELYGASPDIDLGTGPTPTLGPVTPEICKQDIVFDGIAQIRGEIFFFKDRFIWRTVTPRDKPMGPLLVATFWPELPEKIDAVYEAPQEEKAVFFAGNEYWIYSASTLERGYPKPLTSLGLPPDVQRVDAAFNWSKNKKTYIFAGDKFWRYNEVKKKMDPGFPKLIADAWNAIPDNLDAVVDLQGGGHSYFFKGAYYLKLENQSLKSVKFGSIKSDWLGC
Chain of Albumin (P02769 whole entry): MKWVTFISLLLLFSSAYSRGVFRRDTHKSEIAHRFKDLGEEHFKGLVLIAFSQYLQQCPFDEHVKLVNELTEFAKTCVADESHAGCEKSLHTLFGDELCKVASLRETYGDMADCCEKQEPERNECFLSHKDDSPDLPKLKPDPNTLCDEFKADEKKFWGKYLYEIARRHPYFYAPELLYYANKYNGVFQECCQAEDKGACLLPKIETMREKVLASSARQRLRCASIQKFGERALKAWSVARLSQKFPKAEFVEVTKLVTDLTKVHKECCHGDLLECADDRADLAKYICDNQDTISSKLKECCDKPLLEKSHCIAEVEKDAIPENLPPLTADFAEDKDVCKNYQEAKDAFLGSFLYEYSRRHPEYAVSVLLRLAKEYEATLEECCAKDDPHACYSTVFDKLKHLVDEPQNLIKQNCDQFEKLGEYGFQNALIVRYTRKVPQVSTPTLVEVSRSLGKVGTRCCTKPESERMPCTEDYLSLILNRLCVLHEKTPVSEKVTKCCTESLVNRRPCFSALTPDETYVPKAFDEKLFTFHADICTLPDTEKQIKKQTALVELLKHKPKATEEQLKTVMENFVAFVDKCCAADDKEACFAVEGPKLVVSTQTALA
Chain of Voltage-dependent T-type calcium channel subunit alpha-1H (O95180 whole entry): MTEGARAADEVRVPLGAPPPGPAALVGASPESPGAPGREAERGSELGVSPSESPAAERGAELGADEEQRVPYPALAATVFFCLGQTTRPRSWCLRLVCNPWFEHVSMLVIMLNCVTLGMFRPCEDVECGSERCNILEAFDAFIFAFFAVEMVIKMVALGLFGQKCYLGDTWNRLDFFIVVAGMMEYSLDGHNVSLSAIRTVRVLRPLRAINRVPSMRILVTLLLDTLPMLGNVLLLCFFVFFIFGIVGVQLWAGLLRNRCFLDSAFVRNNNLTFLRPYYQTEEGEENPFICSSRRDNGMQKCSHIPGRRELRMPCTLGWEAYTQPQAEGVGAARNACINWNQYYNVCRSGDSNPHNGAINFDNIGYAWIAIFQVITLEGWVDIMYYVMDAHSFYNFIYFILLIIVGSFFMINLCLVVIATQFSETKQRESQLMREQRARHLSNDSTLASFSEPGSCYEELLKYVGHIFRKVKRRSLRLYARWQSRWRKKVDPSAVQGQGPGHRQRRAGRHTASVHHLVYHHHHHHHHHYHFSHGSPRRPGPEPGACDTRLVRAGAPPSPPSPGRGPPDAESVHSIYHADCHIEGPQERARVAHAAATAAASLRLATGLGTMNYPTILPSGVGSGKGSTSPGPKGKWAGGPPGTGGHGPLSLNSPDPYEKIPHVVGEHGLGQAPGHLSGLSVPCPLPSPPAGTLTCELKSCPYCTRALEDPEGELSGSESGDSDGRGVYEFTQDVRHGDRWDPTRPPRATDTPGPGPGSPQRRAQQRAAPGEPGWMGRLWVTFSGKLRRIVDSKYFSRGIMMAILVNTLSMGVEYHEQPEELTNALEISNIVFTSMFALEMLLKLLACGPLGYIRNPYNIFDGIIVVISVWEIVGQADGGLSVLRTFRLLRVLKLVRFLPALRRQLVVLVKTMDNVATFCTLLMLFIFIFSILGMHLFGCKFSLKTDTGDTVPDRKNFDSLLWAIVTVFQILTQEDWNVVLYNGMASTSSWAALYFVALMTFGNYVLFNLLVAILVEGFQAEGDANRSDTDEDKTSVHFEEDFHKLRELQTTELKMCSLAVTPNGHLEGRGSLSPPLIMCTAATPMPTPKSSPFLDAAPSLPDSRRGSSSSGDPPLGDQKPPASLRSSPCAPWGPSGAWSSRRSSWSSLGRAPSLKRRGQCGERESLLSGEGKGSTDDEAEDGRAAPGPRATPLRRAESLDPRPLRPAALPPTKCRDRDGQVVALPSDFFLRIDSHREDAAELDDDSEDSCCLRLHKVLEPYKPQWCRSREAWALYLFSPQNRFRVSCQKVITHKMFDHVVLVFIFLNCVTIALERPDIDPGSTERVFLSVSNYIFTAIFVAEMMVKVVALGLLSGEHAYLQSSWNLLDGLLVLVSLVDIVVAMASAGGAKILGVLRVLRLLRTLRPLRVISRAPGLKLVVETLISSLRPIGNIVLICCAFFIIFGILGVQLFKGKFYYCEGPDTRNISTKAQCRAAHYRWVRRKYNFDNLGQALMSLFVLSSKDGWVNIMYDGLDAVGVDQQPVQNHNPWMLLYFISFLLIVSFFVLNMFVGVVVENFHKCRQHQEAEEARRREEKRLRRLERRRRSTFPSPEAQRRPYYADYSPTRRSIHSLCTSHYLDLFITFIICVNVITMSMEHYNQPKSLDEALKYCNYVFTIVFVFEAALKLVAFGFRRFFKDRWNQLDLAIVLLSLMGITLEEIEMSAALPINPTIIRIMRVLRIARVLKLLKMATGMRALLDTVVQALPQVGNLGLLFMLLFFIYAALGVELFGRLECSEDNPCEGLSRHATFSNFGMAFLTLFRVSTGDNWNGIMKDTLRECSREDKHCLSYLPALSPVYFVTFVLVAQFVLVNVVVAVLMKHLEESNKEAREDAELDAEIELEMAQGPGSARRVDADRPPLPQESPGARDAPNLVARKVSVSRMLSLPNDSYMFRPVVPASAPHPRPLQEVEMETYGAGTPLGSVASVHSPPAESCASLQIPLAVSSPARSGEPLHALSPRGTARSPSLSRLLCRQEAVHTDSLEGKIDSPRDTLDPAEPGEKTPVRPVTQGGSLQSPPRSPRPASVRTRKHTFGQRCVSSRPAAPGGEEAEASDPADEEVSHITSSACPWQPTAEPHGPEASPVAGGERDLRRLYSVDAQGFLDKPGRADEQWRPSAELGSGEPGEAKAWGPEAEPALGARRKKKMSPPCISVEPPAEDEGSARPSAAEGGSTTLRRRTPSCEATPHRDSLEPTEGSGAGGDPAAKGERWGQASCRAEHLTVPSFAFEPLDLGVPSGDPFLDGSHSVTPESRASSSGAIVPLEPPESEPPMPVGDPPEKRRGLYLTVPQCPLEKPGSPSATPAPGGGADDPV
Chain of Dual specificity protein phosphatase 3 (P51452 whole entry): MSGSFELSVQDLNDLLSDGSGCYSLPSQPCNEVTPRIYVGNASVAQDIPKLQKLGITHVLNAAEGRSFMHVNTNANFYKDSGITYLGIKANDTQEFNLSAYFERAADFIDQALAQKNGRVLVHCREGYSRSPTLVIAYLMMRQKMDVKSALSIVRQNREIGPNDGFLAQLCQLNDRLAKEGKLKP

COc1ccc(S(=O)(=O)N2CCOCC2)cc1NC(=O)COC(=O)c1ccc([N+](=O)[O-])s1
EC50 [1]: 40 µM (inactive) | IC50 [2]: 9.28 µM (active) | IC50 [3]: 6.27 µM (active) | IC50 (Caspase-3): 17.1 µM (active) | IC50 [4]: 6.06 µM (active)

Oc1nc(Nc2ccc(Cl)cc2Cl)sc1/C=C1\C=Nc2ccccc21
EC50 [5]: 1.27 µM (active) | IC50 [6]: 36.5 µM (active) | IC50 (Phospholipase A2): 1.5 µM (active) | EC50 (Streptococcus): 2.61 µM (active) | IC50 (Prothrombin): 38.3 µM (active) | IC50 [7]: > 100 µM (inactive) | IC50 (Cysteine protease ATG4B): 2.64 µM (active)

Cc1ccc(-c2nc3cc(C(=O)NCCCn4ccnc4)ccc3c(O)c2O)cc1
IC50 [8]: 16 µM (active) | IC50 [9]: > 20 µM (inactive) | IC50 (Albumin): > 94.1 µM (inactive) | AC50 [10]: 7.05 µM (active)

Cc1ccccc1NC(=O)/C(=C/c1ccccc1)c1ccccc1
EC50 [11]: 9.09 µM (active) | IC50 (Phospholipase A2): 9.58 µM (active) | AC50 (Cytochrome P450 2D6): 14.1 µM (inconclusive) | IC50 (Cysteine protease ATG4B): 10.8 µM (active)

COc1cc(Cl)ccc1N=C(S)N(CCCN1CCOCC1)Cc1cn(C)c2ccccc12
IC50 [12]: 20.8 µM (inactive) | IC50 [13]: 1.03 µM (active) | IC50 [14]: 2.07 µM (active)

O=C(Nc1ccccc1)c1cc(S(=O)(=O)N2CCOCC2)cs1
AC50 [15]: 70.3 µM (active)

O=C1Nc2c(Cl)cc(Cl)cc2C1=O
EC50 [1]: > 104 µM (inactive) | IC50 [16]: 11.8 µM (active)
